Test results reported in US20240041042A1, “1-(PYRIDYL)-5-AZINYLPYRAZOLE DERIVATIVES, AND THEIR USE FOR CONTROL OF UNDESIRED PLANT GROWTH” (Bayer Aktiengesellschaft, priority 2020, published 2024).
Like-named read-outs stand apart in the source and are kept apart here.

Experiments:
Format in all cases: in vivo
Lolium rigidum (LOLRI) [1] = test: Pre-emergence herbicidal action against LOLRI
Excerpt: (§1) Seeds of monocotyledonous and dicotyledonous weed plants and crop plants are placed in plastic or organic planting pots and covered with soil. The compounds of the invention, formulated in the form of wettable powders (WP) or as emulsion concentrates (EC), are then applied to the surface of the covering soil as aqueous suspension or emulsion with addition of 0.5% additive at a water application rate equivalent to 600 l/ha. After the treatment, the pots are placed in a greenhouse and kept under good growth conditions for the trial plants. After about 3 weeks, the effect of the preparations is scored visually in comparison with untreated controls as percentages. For example, 100% activity=the plants have died, 0% activity=like control plants.
(§2) Tables A1 to A13 below show the effects of selected compounds of the general formula (I) on various harmful plants and at an application rate corresponding to 320 g/ha or lower, which were obtained by the experimental procedure mentioned above. The appendices “a”, “b” and “c” give differentiation by dosage used with otherwise the same harmful plants tested.

[2] = test system: Pharbitis purpurea (PHBPU); test: Pre-emergence herbicidal action against PHBPU; conditions: dosage 320 g/ha
Excerpt: as §1, §2

Oryza sativa (ORYSA) = conditions: crop plant compatibility
Description: (§3) Seeds of monocotyledonous and dicotyledonous weeds and crop plants are placed in sandy loam in plastic or organic planting pots, covered with soil and cultivated in a greenhouse under controlled growth conditions. 2 to 3 weeks after sowing, the test plants are treated at the one-leaf stage. The compounds of the invention, formulated in the form of wettable powders (WP) or as emulsion concentrates (EC), are then sprayed onto the green parts of the plants as aqueous suspension or emulsion with addition of 0.5% additive at a water application rate of 600 l/ha (converted). After the test plants have been kept in the greenhouse under optimum growth conditions for about 3 weeks, the activity of the preparations is rated visually in comparison to untreated controls. For example, 100% activity=the plants have died, 0% activity=like control plants.
(§4) The observed effects on selected crop plants are reported here in comparison to the untreated controls (values in %). The appendices “a”, “b” and “c” give differentiation by dosage used with otherwise the same crop plants tested.

Zea mays (ZEAMX) = conditions: for Post-emergence action against ZEAMX in % (crop plant compatibility): 20 g/ha, effect in comparison to untreated controls; for Post-emergence action against ZEAMX in %: crop plant compatibility, 80 g/ha, effect vs untreated controls
Description: as §3, §4

[3] = test system: Amaranthus retroflexus (AMARE); test: Pre-emergence herbicidal action against AMARE; conditions: visual scoring after about 3 weeks vs untreated controls
Excerpt: as §1, §2

Avena fatua (AVEFA) [4] = test: Post-emergence herbicidal action against AVEFA; conditions: visual rating about 3 weeks after treatment
Description: as §3
(§5) Tables B1 to B13 below show the effects of selected compounds of the general formula (I) according to Table 1 on various harmful plants and at an application rate corresponding to 320 g/ha or lower, which were obtained by the experimental procedure mentioned above. The appendices “a”, “b” and “c” give differentiation by dosage used with otherwise the same harmful plants tested.

[5] = test system: Amaranthus retroflexus (AMARE); test: Post-emergence herbicidal action against AMARE; conditions: 80 g/ha, visual rating about 3 weeks after treatment vs untreated controls (100% = plants have died, 0% = like control plants)
Description: as §3, §5

[6] = test system: Alopecurus myosuroides (ALOMY); test: Post-emergence herbicidal action against ALOMY; conditions: visual rating about 3 weeks after treatment vs untreated controls (100% = plants have died, 0% = like control plants)
Description: as §3, §5

Setaria viridis (SETVI) [7] = test: Post-emergence herbicidal action against SETVI
Description: as §3, §5

[8] = test system: Verconica persica (VERPE); test: Pre-emergence herbicidal action against VERPE
Excerpt: as §1, §2

[9] = test system: Echinochloa crus-galli (ECHCG); test: Pre-emergence herbicidal action against ECHCG
Excerpt: as §1, §2

Setaria viridis (SETVI) [10] = test: Pre-emergence herbicidal action against SETVI
Excerpt: as §1, §2

[11] = test system: Alopecurus myosuroides (ALOMY); test: Pre-emergence herbicidal action against ALOMY; conditions: scored visually after about 3 weeks, 100% = plants have died
Excerpt: as §1, §2

[12] = test system: Echinochloa crus-galli (ECHCG); test: Post-emergence herbicidal action against ECHCG
Description: as §3, §5

[13] = test system: Matricaria inodora (MATIN); test: Pre-emergence herbicidal action against MATIN
Excerpt: as §1, §2

Viola tricolor (VIOTR) [14] = test: Pre-emergence herbicidal action against VIOTR
Excerpt: as §1, §2

[15] = test system: Polygonum convolvulus (POLCO); test: Pre-emergence herbicidal action against POLCO
Excerpt: as §1, §2

Avena fatua (AVEFA) [16] = test: Pre-emergence herbicidal action against AVEFA; conditions: visual scoring after about 3 weeks vs untreated controls
Excerpt: as §1, §2

Viola tricolor (VIOTR) [17] = test: Post-emergence herbicidal action against VIOTR
Description: as §3, §5

[18] = test system: Verconica persica (VERPE); test: Post-emergence herbicidal action against VERPE
Description: as §3, §5

Lolium rigidum (LOLRI) [19] = test: Post-emergence herbicidal action against LOLRI
Description: as §3, §5

[20] = test system: Pharbitis purpurea (PHBPU); test: Post-emergence herbicidal action against PHBPU
Description: as §3, §5

[21] = test system: Polygonum convolvulus (POLCO); test: Post-emergence herbicidal action against POLCO; conditions: dosage 320 g/ha
Description: as §3, §5

[22] = test system: Abutilon theophrasti (ABUTH); test: Post-emergence herbicidal action against ABUTH; conditions: 320 g/ha, visual rating about 3 weeks after treatment vs untreated controls (100% = plants have died, 0% = like control plants)
Description: as §3, §5

[23] = 20 g/ha, effect vs untreated controls
[24] = 80 g/ha, effect in comparison to untreated controls

Compound | Pre-emergence action against LOLRI in % (Lolium rigidum (LOLRI) [1]; dosage 80 g/ha) [%] | Pre-emergence action against LOLRI in % (Lolium rigidum (LOLRI) [1]; dosage 320 g/ha) [%] | Pre-emergence action against PHBPU in % [2] [%] | Post-emergence action against ZEAMX in % (crop plant compatibility) (Zea mays (ZEAMX)) [%] | Post-emergence action against ZEAMX in % (Zea mays (ZEAMX)) [%] | Pre-emergence action against AMARE in % ([3]; 80 g/ha) [%] | Pre-emergence action against AMARE in % ([3]; 320 g/ha) [%] | Post-emergence action against AVEFA in % (Avena fatua (AVEFA) [4]; 80 g/ha) [%] | Post-emergence action against ALOMY in % ([6]; 80 g/ha) [%] | Pre-emergence action against VERPE in % ([8]; dosage 320 g/ha) [%] | Pre-emergence action against ECHCG in % ([9]; dosage 320 g/ha) [%] | Pre-emergence action against SETVI in % (Setaria viridis (SETVI) [10]; dosage 80 g/ha) [%] | Pre-emergence action against SETVI in % (Setaria viridis (SETVI) [10]; dosage 320 g/ha) [%] | Pre-emergence action against ALOMY ([11]; 80 g/ha) [%] | Pre-emergence action against ALOMY ([11]; 320 g/ha) [%] | Post-emergence action against ECHCG in % ([12]; dosage 80 g/ha) [%] | Pre-emergence action against VIOTR in % (Viola tricolor (VIOTR) [14]; 320 g/ha, Viola tricolor) [%] | Pre-emergence action against VIOTR in % (Viola tricolor (VIOTR) [14]; dosage 80 g/ha) [%] | Pre-emergence action against POLCO in % ([15]; dosage 320 g/ha) [%] | Pre-emergence action against AVEFA in % (Avena fatua (AVEFA) [16]; 320 g/ha) [%] | also measured
O=C(O)COc1nn(-c2ncccc2F)c(-c2ccc(F)nc2)c1C1CC1 [Example I-43] | 90 | 100 | 80 | 10 | 10 | 80 | 90 | 90 | 90 | 90 | 100 | 100 | 100 | 100 | 100 | 90 | 100 | 100 | 80 | 100 | Post-emergence action against ORYSA in % (Oryza sativa (ORYSA); [23]): 10%; Post-emergence action against AMARE in % [5]: 80%; Post-emergence action against SETVI in % (Setaria viridis (SETVI) [7]; dosage 80 g/ha): 90%; Pre-emergence action against MATIN in % ([13]; dosage 320 g/ha): 80%
CCOC(=O)[C@@H](C)Oc1nn(-c2ncccc2F)c(-c2ccc(F)nc2)c1Cl [Example I-32] | 90 | 100 | 80 | 20 | – | 90 | 100 | 90 | 90 | 100 | 100 | 100 | 100 | 90 | 100 | 80 | 100 | 100 | 90 | 100 | Post-emergence action against VIOTR in % (Viola tricolor (VIOTR) [17]; 80 g/ha): 80%; Post-emergence action against ORYSA in % (Oryza sativa (ORYSA); [23]): 0%; Post-emergence action against ORYSA in % (Oryza sativa (ORYSA); [24]): 0%; Pre-emergence action against VERPE in % ([8]; dosage 80 g/ha): 80%; Post-emergence action against VERPE in % ([18]; dosage 80 g/ha): 80%; Post-emergence action against LOLRI in % (Lolium rigidum (LOLRI) [19]; dosage 80 g/ha): 90%; Pre-emergence action against MATIN in % ([13]; dosage 320 g/ha): 90%; Pre-emergence action against POLCO in % ([15]; dosage 80 g/ha): 90%; Post-emergence action against PHBPU in % ([20]; dosage 80 g/ha): 80%; Pre-emergence action against AVEFA in % (Avena fatua (AVEFA) [16]; 80 g/ha): 90%
C[C@@H](Oc1nn(-c2nc(F)ccc2F)c(-c2ccc(F)nc2)c1Cl)C(=O)O [Example I-311] | 90 | 90 | – | – | 10 | 80 | 90 | – | 80 | 90 | 100 | – | 100 | 80 | 90 | 80 | 100 | 90 | 90 | 90 | Post-emergence action against VIOTR in % (Viola tricolor (VIOTR) [17]; 80 g/ha): 80%; Post-emergence action against VIOTR in % (Viola tricolor (VIOTR) [17]; 320 g/ha): 80%; Post-emergence action against ORYSA in % (Oryza sativa (ORYSA); [24]): 20%; Post-emergence action against AVEFA in % (Avena fatua (AVEFA) [4]; 320 g/ha): 80%; Post-emergence action against ALOMY in % ([6]; 320 g/ha): 90%; Post-emergence action against SETVI in % (Setaria viridis (SETVI) [7]; dosage 320 g/ha): 80%; Pre-emergence action against VERPE in % ([8]; dosage 80 g/ha): 80%; Post-emergence action against VERPE in % ([18]; 320 g/ha, VERPE): 90%; Post-emergence action against POLCO in % [21]: 80%; Post-emergence action against LOLRI in % (Lolium rigidum (LOLRI) [19]; dosage 320 g/ha): 80%; Post-emergence action against ECHCG in % ([12]; dosage 320 g/ha): 90%; Pre-emergence action against MATIN in % ([13]; dosage 80 g/ha): 80%; Pre-emergence action against MATIN in % ([13]; dosage 320 g/ha): 90%; Pre-emergence action against POLCO in % ([15]; dosage 80 g/ha): 80%; Post-emergence action against PHBPU in % ([20]; dosage 320 g/ha): 90%; Post-emergence action against ABUTH in % [22]: 80%
CCOC(=O)COc1nn(-c2ncccc2F)c(-c2ccc(F)nc2)c1C1CC1 [Example I-40] | 90 | 100 | 80 | 0 | 20 | 80 | 100 | 80 | 100 | 100 | 100 | 100 | 100 | 100 | 100 | 90 | 100 | 90 | 80 | 100 | Post-emergence action against AMARE in % [5]: 80%; Post-emergence action against SETVI in % (Setaria viridis (SETVI) [7]; dosage 80 g/ha): 80%; Post-emergence action against VERPE in % ([18]; dosage 80 g/ha): 80%; Pre-emergence action against ECHCG in % ([9]; dosage 80 g/ha): 90%; Post-emergence action against LOLRI in % (Lolium rigidum (LOLRI) [19]; dosage 80 g/ha): 90%; Post-emergence action against PHBPU in % ([20]; dosage 80 g/ha): 80%
